In ChEMBL document CHEMBL1201862, “PubChem BioAssay data set” (2004):
The source made the active and inactive calls.

Columns and labels:
[1] = target: FAD-linked sulfhydryl oxidase ALR (Homo sapiens, UniProt P55789); assay: ALR-catalysed DTT oxidation blockers – biochemical, H2O2 detection, luminescence, cherry-pick, dose response (AID 493248)
Protein skinhead-1 = target: T1, Protein skinhead-1 (Caenorhabditis elegans, UniProt P34707); format: functional
T1 sequence (P34707 whole entry): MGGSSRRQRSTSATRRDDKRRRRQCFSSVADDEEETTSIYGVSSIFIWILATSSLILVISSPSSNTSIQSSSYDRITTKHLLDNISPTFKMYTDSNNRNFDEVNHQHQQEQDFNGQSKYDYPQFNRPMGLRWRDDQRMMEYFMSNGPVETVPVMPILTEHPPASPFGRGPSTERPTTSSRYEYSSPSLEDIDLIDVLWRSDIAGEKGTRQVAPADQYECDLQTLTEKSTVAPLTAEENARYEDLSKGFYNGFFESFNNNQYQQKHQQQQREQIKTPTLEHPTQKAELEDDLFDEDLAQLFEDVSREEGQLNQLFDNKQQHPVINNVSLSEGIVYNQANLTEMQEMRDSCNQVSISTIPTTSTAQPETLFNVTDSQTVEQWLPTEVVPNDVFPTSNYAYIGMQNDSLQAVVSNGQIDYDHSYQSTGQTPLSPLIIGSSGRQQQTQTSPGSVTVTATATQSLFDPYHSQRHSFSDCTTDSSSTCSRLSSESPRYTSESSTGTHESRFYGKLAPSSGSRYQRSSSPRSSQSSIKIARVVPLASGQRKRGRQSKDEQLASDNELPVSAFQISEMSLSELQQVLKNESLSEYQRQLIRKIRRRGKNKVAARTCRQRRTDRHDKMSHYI

[2] = target: T2, Zinc finger protein mex-5 (Caenorhabditis elegans, UniProt Q9XUB2); assay: potency of MEX-5 RNA-binding blockers – biochemical, C. elegans, fluorescence polarization, dose response (AID 1960)
T2 sequence (Q9XUB2 whole entry): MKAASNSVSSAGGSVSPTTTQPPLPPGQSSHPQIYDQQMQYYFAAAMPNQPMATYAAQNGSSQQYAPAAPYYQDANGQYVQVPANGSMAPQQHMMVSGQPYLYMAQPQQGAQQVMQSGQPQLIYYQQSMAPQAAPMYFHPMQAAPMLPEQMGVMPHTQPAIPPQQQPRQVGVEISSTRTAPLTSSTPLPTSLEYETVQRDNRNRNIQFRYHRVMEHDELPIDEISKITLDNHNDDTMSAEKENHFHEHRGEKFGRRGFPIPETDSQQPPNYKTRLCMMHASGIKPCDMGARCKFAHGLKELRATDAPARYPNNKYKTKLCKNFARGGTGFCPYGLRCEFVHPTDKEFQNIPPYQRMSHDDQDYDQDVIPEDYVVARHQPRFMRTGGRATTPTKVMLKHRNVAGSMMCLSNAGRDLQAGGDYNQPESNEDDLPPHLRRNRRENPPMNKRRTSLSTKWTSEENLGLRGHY

[3] = target: T3, RNA-binding protein pos-1 (Caenorhabditis elegans, UniProt G5EF15); assay: disruptors of C. elegans POS-1 RNA interaction – biochemical, fluorescence polarization, dose response (AID 1964);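 also: purified POS-1 fused to maltose binding protein made in E. coli; potency of compounds blocking POS-1 binding to fluorescent RNA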
T3 sequence (G5EF15 whole entry): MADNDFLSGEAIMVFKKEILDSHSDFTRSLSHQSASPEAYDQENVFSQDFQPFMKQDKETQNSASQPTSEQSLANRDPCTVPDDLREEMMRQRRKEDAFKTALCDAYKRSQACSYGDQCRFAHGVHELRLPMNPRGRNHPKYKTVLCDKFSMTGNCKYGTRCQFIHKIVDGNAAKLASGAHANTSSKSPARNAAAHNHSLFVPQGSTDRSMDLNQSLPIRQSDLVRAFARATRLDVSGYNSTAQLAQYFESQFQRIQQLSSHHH

H4 = assay: Luminescence Cell-Based Dose Response HTS to Identify Activators of 5'UTR Stem-Loop Driven Prion Protein mRNA Translation in H4 Neuroglioblastoma Cells. [Related pubchem assays: 1829 (Project Summary), 1814 (Primary HTS)]; format: functional; settings: Homo sapiens
[4] = Luminescence Cell-Based Dose Response HTS to Identify Activators of Luciferase Translation or Activity in H4 […] Cells. [Related pubchem assays: 1829 (Project Summary), 1814 (Primary HTS)]; format: functional
[5] = system: Streptococcus sp. 'group A'; assay: Streptococcus pyogenes SK(-)GAS viability under kanamycin – luminescence, BacTiterGlo, confirmation, counter-screen for streptokinase expression inhibitor project, dose response (AID 1900); format: functional, organism-based
[6] = Trypanosoma cruzi growth suppression in host cells – NIH3T3 host cells, beta-gal luminescence, confirmation (AID 2044); format: functional, cell-based;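 also: intracellular parasites grown in NIH/3T3 mouse fibroblasts as host cells; luminescent beta-galactosidase reporter signal from transgenic T. cruzi replicating inside host cells; inhibitors lower the luminescence signal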
[7] = NIH3T3 cell viability loss – ATP luminescence, mouse fibroblasts, counter-screen, dose response (AID 2010); format: functional, cell-based;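 also: cells exposed to compound for about 90 hours before reading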
Streptococcus = assay: GAS UMAA2166 growth inhibition – luminescence, BacTiterGlo, counter-screen for streptokinase expression inhibitor project, dose response (AID 1915); format: functional, organism-based;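 also: potency for reduction of bacterial viability or growth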
Streptokinase A = target: T4, Streptokinase A (Streptococcus pyogenes serotype M1, UniProt P10520); assay: viability-normalized secreted streptokinase activity reduction – plasminogen activation absorbance, OD405, dose response (AID 1914); format: functional, Streptococcus pyogenes M1 GAS;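 also: secreted streptokinase activity via plasminogen activation per viability signal from cell pellet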
T4 sequence (P10520 whole entry): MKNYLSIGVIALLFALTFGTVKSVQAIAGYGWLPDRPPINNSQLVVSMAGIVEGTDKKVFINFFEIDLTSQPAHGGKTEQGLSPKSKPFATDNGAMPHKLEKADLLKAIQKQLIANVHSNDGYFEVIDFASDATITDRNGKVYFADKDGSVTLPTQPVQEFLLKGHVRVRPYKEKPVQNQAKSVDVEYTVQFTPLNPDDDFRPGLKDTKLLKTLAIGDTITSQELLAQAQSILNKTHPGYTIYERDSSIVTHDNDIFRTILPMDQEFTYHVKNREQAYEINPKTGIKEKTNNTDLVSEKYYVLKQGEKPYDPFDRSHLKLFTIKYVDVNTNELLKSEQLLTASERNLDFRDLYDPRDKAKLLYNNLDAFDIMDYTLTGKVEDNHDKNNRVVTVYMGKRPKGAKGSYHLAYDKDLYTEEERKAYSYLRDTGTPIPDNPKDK

Cytochrome P450 1A2 = target: T5, Cytochrome P450 1A2 (Homo sapiens, UniProt P05177);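 also: PubChem cytochrome P450 panel assay, CYP1A2 panel member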
T5 sequence (P05177 whole entry): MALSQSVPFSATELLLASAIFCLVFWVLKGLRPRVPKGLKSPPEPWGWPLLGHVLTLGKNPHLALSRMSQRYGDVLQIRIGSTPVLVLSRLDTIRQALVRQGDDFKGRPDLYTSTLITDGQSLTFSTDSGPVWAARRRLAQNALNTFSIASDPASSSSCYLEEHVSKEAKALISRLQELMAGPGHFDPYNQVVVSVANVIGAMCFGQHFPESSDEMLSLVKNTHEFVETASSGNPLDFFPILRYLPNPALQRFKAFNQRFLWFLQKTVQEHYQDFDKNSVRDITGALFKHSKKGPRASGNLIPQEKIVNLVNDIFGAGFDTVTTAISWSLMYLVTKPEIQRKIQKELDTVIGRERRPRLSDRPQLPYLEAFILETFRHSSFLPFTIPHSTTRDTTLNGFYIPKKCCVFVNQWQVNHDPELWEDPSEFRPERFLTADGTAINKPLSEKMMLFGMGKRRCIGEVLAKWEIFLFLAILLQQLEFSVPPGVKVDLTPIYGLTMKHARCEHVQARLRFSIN

Cytochrome P450 2C9 = Cytochrome P450 2C9 (Homo sapiens, UniProt P11712)
Chain of Cytochrome P450 2C9 (P11712 whole entry): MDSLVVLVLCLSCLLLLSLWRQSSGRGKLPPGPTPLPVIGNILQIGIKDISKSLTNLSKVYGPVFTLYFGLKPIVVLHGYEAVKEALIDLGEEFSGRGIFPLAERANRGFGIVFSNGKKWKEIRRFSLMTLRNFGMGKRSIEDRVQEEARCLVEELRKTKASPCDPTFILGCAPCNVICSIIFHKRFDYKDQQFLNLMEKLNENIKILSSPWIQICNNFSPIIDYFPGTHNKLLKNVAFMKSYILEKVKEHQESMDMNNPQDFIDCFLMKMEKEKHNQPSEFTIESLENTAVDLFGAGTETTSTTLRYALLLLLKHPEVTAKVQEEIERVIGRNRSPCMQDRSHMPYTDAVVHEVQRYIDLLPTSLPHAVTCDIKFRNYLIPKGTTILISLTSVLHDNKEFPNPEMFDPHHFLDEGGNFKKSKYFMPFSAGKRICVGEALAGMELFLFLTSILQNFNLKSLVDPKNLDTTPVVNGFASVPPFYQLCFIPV

Cytochrome P450 2C19 = Cytochrome P450 2C19 (Homo sapiens, UniProt P33261); assay: Cytochrome panel assay with activity outcomes. Panel member name: p450-cyp2c19 Compounds with AC50 equal or less than 10 uM are considered active; format: functional; settings: read-out: AC50
Chain of Cytochrome P450 2C19 (P33261 whole entry): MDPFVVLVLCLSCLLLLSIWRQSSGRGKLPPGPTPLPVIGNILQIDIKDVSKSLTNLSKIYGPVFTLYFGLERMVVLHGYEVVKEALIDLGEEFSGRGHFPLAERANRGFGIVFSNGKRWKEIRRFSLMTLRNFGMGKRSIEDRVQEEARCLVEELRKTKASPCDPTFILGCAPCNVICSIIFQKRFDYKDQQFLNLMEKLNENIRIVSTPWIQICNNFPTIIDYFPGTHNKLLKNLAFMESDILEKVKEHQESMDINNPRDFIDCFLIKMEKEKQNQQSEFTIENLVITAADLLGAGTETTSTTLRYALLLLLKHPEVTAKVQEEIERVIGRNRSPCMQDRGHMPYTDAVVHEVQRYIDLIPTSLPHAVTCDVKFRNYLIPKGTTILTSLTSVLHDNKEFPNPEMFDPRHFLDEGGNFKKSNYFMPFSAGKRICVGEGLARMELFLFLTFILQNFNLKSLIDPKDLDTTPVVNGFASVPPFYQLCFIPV

Cytochrome P450 2D6 = Cytochrome P450 2D6 (Homo sapiens, UniProt P10635);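 also: CYP2D6 member of a cytochrome P450 panel assay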
Chain of Cytochrome P450 2D6 (P10635 whole entry): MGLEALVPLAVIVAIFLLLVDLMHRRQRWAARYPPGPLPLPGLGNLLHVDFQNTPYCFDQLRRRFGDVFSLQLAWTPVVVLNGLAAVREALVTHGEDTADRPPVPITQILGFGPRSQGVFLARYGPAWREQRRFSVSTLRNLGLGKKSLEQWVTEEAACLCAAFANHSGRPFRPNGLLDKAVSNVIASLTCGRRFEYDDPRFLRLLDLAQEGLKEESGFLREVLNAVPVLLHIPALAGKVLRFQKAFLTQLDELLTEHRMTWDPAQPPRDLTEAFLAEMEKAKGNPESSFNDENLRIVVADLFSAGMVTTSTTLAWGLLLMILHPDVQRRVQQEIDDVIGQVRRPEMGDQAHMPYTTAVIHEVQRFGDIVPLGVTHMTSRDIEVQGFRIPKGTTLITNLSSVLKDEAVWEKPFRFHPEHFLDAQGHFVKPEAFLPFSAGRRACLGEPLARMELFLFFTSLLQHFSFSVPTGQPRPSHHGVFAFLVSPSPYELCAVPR

[8] = target: T6, Rac GTPase-activating protein 1 (Homo sapiens, UniProt Q9H0H5); assay: blockers of MgcRacGAP-driven Rac1 GTP hydrolysis – biochemical, ADP Hunter fluorescence, primary and confirmatory, confirmation (AID 624330); format: functional
T6 sequence (Q9H0H5 whole entry): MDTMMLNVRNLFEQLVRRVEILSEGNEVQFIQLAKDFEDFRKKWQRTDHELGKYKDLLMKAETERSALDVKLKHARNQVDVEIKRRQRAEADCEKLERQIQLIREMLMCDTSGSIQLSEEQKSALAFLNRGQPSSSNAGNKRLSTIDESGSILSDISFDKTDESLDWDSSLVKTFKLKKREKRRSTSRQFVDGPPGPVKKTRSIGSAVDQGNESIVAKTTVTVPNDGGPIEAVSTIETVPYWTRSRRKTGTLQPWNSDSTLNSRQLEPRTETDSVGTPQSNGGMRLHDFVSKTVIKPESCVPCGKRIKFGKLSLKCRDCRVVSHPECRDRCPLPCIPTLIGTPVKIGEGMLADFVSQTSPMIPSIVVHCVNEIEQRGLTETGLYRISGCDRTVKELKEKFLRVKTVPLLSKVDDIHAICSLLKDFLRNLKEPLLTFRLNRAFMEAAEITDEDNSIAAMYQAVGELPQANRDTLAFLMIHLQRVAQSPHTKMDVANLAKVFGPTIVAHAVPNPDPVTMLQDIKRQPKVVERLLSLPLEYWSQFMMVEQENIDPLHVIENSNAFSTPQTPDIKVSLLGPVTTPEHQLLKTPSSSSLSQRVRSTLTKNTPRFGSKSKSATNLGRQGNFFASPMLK

Chain of FAD-linked sulfhydryl oxidase ALR (P55789 whole entry): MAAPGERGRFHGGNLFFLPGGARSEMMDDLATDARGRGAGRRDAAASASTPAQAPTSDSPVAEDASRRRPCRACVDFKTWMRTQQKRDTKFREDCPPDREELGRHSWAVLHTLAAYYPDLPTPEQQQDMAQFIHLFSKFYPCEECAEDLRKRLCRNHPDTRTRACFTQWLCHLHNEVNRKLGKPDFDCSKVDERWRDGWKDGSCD

Cn1cnc2cc(NCc3ccc(Cl)cc3)ccc21
AC50 [1]: 5.49 µM (active)

Cc1cc(O)c(C(C)C)cc1NC(=O)Nc1ccc([N+](=O)[O-])cc1
IC50 (Protein skinhead-1): 68.4 µM (inactive)

O=C(Nc1nccs1)c1ccc(-c2ccc([N+](=O)[O-])cc2)o1
EC50 [2]: 6.66 µM (active) | EC50 [3]: 12.3 µM (inconclusive)

O=S1(=O)C=C(Oc2ccc3ccccc3c2)c2ccccc21
IC50 (Protein skinhead-1): > 100 µM (inactive)

Cc1ccc(NC(=O)CCOc2ccccc2)cc1
EC50 (H4): > 120 µM (not active) | EC50 [4]: 92.6 µM (active)

CCCC(C)C(=O)NCc1ccccc1OC (stereo unspecified)
IC50 (Protein skinhead-1): > 100 µM (inactive)

COc1cccc(-c2cccc(NC(=O)C3CCN(CC4CCOC4)CC3)c2)c1 (stereo unspecified)
IC50 (Protein skinhead-1): > 100 µM (inactive)

CCOc1cc2c(cc1/C=C(/C#N)c1ccc(C(=O)O)cc1)OCO2
EC50 [2]: > 300 µM (not active) | EC50 [3]: > 300 µM (not active)

COc1ccc(N2CCN(C(=O)Cc3cccs3)CC2)cc1
AC50 [1]: 2.36 µM (active)

COc1cccc(N/N=C/c2cccc(Br)c2O)c1
EC50 [5]: 12.5 µM (active) | EC50 [6]: 3.27 µM (active) | EC50 [7]: > 60 µM (not active) | EC50 (Streptococcus): > 150 µM (not active) | AC50 [1]: 1.67 µM (active) | EC50 (Streptokinase A): 19.6 µM (active)

Cc1ccc(-c2nc(N/N=C/c3ccccc3[N+](=O)[O-])c3ccccc3n2)cc1
EC50 (H4): 0.595 µM (active)

O=C(N/N=C/c1ccc2nccnc2c1)c1ccccc1O
EC50 (H4): 44.2 µM (active) | EC50 [4]: 48.8 µM (active)

CCOC(=O)c1c(NC(=O)CCC(=O)N2CCOCC2)sc2c1CC(C)(C)OC2
AC50 (Cytochrome P450 1A2): 15.8 µM (inconclusive) | AC50 (Cytochrome P450 2C9): 0.00562 µM (inconclusive) | AC50 (Cytochrome P450 2C19): 0.224 µM (inconclusive)

CCOC(=O)CSc1nc2ccccc2c(=O)n1CCN1CCOCC1
IC50 (Protein skinhead-1): > 100 µM (inactive)

Cc1ccc2c(c1)c(C)c(C)n2CC(O)CN1CCOCC1 (stereo unspecified)
IC50 (Protein skinhead-1): > 100 µM (inactive)

COc1ccc(-c2nnn(CC(=O)N(CC(=O)NCCC(C)C)Cc3cccs3)n2)cc1OC
AC50 (Cytochrome P450 1A2): 31.6 µM (inconclusive) | AC50 (Cytochrome P450 2C9): 7.08 µM (inconclusive)

COC(=O)[C@H](Cc1ccccc1)NC(=O)N1CCN(c2ccccc2)CC1
AC50 [1]: 6.26 µM (active)

O=C(CN1CCN(S(=O)(=O)c2ccc(F)cc2)CC1)Nc1ccc2c(c1)OCO2
AC50 (Cytochrome P450 1A2): 25.1 µM (inconclusive) | AC50 (Cytochrome P450 2C9): 11.2 µM (inconclusive) | AC50 (Cytochrome P450 2C19): 3.98 µM (inconclusive) | AC50 (Cytochrome P450 2D6): 5.01 µM (inconclusive)

Nc1ccc2c(Cl)cc(Cl)cc2c1
IC50 (Protein skinhead-1): 22.7 µM (active)

COc1cc(/C=N/NC(=O)c2cccc([N+](=O)[O-])c2)cc(OC)c1O
AC50 [1]: 2.04 µM (active)

O=C(c1cc(COc2ccc(F)cc2Cl)on1)N1CCCCCC1
IC50 (Protein skinhead-1): > 100 µM (inactive)

O=C(c1ccco1)N1CCC2(CCCN(C(c3ccccc3)c3ccccc3)C2)CC1
AC50 (Cytochrome P450 1A2): 15.8 µM (inconclusive) | AC50 (Cytochrome P450 2C19): 39.8 µM (inconclusive)

CC(NC(=O)c1ccc(N2CCCC2)c([N+](=O)[O-])c1)c1ccc(S(N)(=O)=O)cc1 (stereo unspecified)
AC50 [1]: 3.51 µM (active)

CCN(CC)c1ccc(NC(=O)CN2CCN(c3ccccn3)CC2)cc1
IC50 [8]: 131 µM (active) | AC50 [1]: 0.384 µM (active)

COc1ccc(C2(CNC(=O)/C=C/c3ccco3)CCCC2)cc1OC
AC50 (Cytochrome P450 1A2): 22.4 µM (inconclusive) | AC50 (Cytochrome P450 2C9): 10 µM (inconclusive)

N#CC1=C(N)n2c(s/c(=C\c3cccs3)c2=O)=C(C#N)C1c1cccs1 (stereo unspecified)
AC50 [1]: 5.68 µM (active)

CCc1ccc(CNc2ccc(N3CCN(C(C)=O)CC3)cc2)cc1
IC50 [8]: 9.44 µM (active) | AC50 [1]: 0.445 µM (active)

Cc1cccc(NC(=O)c2cccc(N3C(=O)C4C5CCC(C5)C4C3=O)c2)c1C (stereo unspecified)
AC50 (Cytochrome P450 1A2): 25.1 µM (inconclusive) | AC50 (Cytochrome P450 2C9): 22.4 µM (inconclusive)

CCC(C)Nc1nc2c(c(=O)n(C)c(=O)n2C)n1Cc1cccc(C)c1 (stereo unspecified)
AC50 [1]: 8.61 µM (active)

COc1cc(C)cc2c(-c3c(O)cc(O)c4c3C[C@H](C)N[C@@H]4C)cc(-c3cc(-c4c(O)cc(O)c5c4C[C@H](C)N[C@@H]5C)c4cc(C)cc(OC)c4c3O)c(O)c12
AC50 (Cytochrome P450 1A2): 0.2 µM (inconclusive) | AC50 (Cytochrome P450 2D6): 5.01 µM (inconclusive)
